Laboratory results reported in PMC12670426 (Journal of Medicinal Chemistry, 2025).

Legend:
[1] = Microsomal stability assay, mouse liver microsomes; type: in vitro ADME; conditions: pooled liver microsomes, pH 7.4, mouse liver microsomes 0.5 mg/mL, NADPH
Description: Microsomal stability was determined using 0.5 mg/mL of pooled human, mouse, or rat liver microsomes (Thermo Fisher Scientific) in 90 mM TRIS-Cl buffer (pH 7.4) containing 2 mM NADPH and 2 mM MgCl2. Test compounds (10 μM) were added, and the resulting mixture was incubated at 37 °C for 10, 60, 120, and 180 min. The reactions were terminated by the addition of four volumes of ice-cold methanol, followed by vigorous mixing. The samples were left at −20 °C for 30 min and then stored at 4 °C overnight. The next day, samples were centrifuged, and supernatants were diluted with four volumes of 30% methanol in water. Zero time points were prepared by adding ice-cold methanol to the mixture of compounds and cofactors prior to the addition of microsomes. The samples were then analyzed using the Echo-MS system (SCIEX) with MRM transition monitoring, except for compound 3af, which was analyzed by LC–MS/MS as described in the plasma stability assay.

Cytotoxicity assay, LX2 = type: cell-based; conditions: human, LX2 cells, viability dye, flow cytometry
Description: (§1) To evaluate in vitro cytotoxicity and support its potential application in inflammatory and fibrotic disease models, the following panel of cell lines, representing the relevant biological systems, was used: HEK293, HepG2, THP1, Jurkat E6.1, and LX2. HEK293, HepG2, and Jurkat E6.1 cells were seeded at 400,000 cells/mL, THP1 cells at 500,000 cells/mL, and LX2 cells at 200,000 cells/mL in 96-well plates (cell culture-treated, VWR) in 100 μL/well. Cells were treated with the tested compounds in a serial dilution (300, 100, 33.3, 11.1, and 3.7 μM) for 24 h. Untreated cells served as negative controls to establish the baseline viability threshold. Cell viability was assessed using a viability dye (Zombie Violet Fixable Viability Kit, BioLegend) following the manufacturer’s instructions and analyzed by flow cytometry (see below).
(§2) Cells or beads from screening assays prepared for flow cytometry were analyzed by the CytoFlex S instrument (Beckman Coulter). Data acquisition was performed using CytExpert software (v2.5, Beckman Coulter). Debris was excluded by forward and side scatter gating, followed by doublet exclusion. Data were analyzed using FlowJo software (v10, BD Biosciences).

[2] = Cytotoxicity assay, HEK293; type: cell-based; conditions: human, HEK293 cells, viability dye, flow cytometry
Description: as §1, §2

[3] = system: TGFβ-stimulated LX2 hepatic stellate cells; assay: Antifibrotic efficacy: profibrotic gene expression in TGFβ-stimulated LX2 hepatic stellate cells (RT-qPCR); type: cell-based, human; conditions: TGFβ-stimulated LX2, 48 h, RT-qPCR normalized to ACTB
Description: LX2 cells were then stimulated with transforming growth factor-β1 (TGFβ1; PeproTech, Thermo Fisher Scientific) at 5 ng/mL to induce profibrotic signaling. […] After 48 h of treatment, cells were harvested into 100 μL RA1 buffer, and total RNA was then isolated using the NucleoSpin 96 RNA Kit (Macherey-Nagel, Düren, Germany) and reverse-transcribed into cDNA using the LunaScript RT SuperMix Kit (New England Biolabs, Ipswich, MA, USA). Quantitative real-time PCR (RT-qPCR) was used to determine mRNA expression levels of selected profibrotic markers: αSMA (ACTA2), collagen α-2(I) chain (COL1A2), and fibronectin 1 (FN1), and the housekeeping gene β-actin (ACTB). Amplification was carried out using Luna Universal qPCR Master Mix (New England Biolabs) and primer pairs for individual genes as follows: ACTA2: forward primer: [NT], reverse primer: [NT]; COL1A2: forward primer: [NT], reverse primer: [NT]; FN1: forward primer: [NT], reverse primer: [NT]; ACTB: forward primer: [NT], reverse primer: [NT] (Eurofins Genomics). Data were normalized to ACTB expression and analyzed using the ΔΔCt method.

[4] = Plasma stability assay, human plasma; type: in vitro ADME; conditions: pooled plasma, 37 °C
Description: Test compounds (10 μM) were incubated with mouse, rat, or human pooled plasma from 50 donors (Biowest) at 37 °C for 20, 60, and 120 min. Reactions were terminated by adding four volumes of ice-cold methanol, followed by vigorous mixing. Samples were kept at −20 °C for 30 min and then stored at 4 °C overnight. The next day, samples were centrifuged, and supernatants were diluted with four volumes of 30% methanol in water. Zero time points were prepared by adding ice-cold methanol to the compound prior to the addition of plasma. Samples were then analyzed on an Echo MS system (SCIEX) using multiple reaction monitoring (MRM). The only exception was compound 3af, which was analyzed by LC–MS/MS (SCIEX 6500 triple quadrupole) due to its weak ionization in Echo-MS.

microsomal CLint at 10 μM [1]: < 2 µL/min/mg
remaining at 2 h, 10 μM [4]: 110 ± 6%
SMILES: CC(=O)N(c1cc(C(=O)O)cc2[nH]ccc12)[C@@H]1O[C@H](CO)[C@@H](S[C@@H]2O[C@H](CO)[C@H](O)[C@H](n3cc(-c4cccc(F)c4)nn3)[C@H]2O)[C@H](O)[C@H]1O [Compound 11, N-[4-S-(3-Deoxy-3-(4-(3-fluorophenyl)-1H-1,2,3-triazol-1-yl)-β-D-galactopyranosyl)-4-thio-β-D-glucopyranosyl]-N-(6-carboxy-1H-indol-4-yl)acetamide]
CC50 at 24 h (Cytotoxicity assay, LX2): > 300 µM
CC50 at 24 h [2]: > 300 µM
ACTA2 mRNA expression [3]: dose-dependent downregulation
COL1A2 mRNA expression [3]: dose-dependent downregulation
FN1 mRNA expression [3]: dose-dependent downregulation
